The record followed here is patent US20260167637A1, “NLRP3 INFLAMMASOME INHIBITOR AND USE THEREOF” (TransThera Sciences (Nanjing), Inc., priority 2022, published 2026).

One may read the IC50 as the point on the concentration scale where inhibition reaches its midpoint. As a reminder, the clearance is the rate of elimination divided by the concentration. As a reminder, the bioavailability is the share of a dose that reaches the circulation, judged against a reference dose that is usually intravenous. One may read the microsomal CLint as the capacity of the preparation to metabolise the compound, expressed as a volume cleared per time.

Each structure is given as a SMILES string. Like-named read-outs stand apart in the source and are kept apart here.

For data set [1], the target named is T1, THP-1 cell NLRP3 (Homo sapiens, UniProt Q96P20).
T1 construct: endogenous in cells; host or cells: THP-1 cells, PMA-differentiated, stimulated with LPS and nigericin
Kind of data set: Inhibitory activity against cell NLRP3 inflammasomes in THP-1 cells (LPS + nigericin, ELISA of supernatant). Format: cell-based. To be noted: PMA-differentiated THP-1 cells, LPS 500 ng/mL 3 h, compound 1 h, nigericin 30 min; human IL-10 (so in the source) in supernatant by ELISA. The method in brief: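 PMA-differentiated (10 ng/mL, 16 h) THP-1 cells primed with 500 ng/mL LPS for 3 h in serum-free medium, then compound for 1 h (DMSO stock diluted 1:1000). Nigericin added for 30 min at 37 °C; IL-1β (printed as IL-10) in supernatant measured by ELISA.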
A general note: In an ELISA, binding on a coated surface is turned into a signal by an enzyme label.

Data set [2] in a line: Pharmacokinetic study in male SD rats. Format: in vivo. To be noted: rat, plasma. On the procedure:
Experimental Example 4: Pharmacokinetic Study of Compounds in Male SD Rats
The compounds were prepared into solutions using a mixed vehicle composed of 5% dimethyl sulfoxide, 20% (30% solutol), and 75% normal saline. The compound solutions were intragastrically administered to male SD rats at a dose of 5.0 mg/kg, and the blood collection time points were: 15 min, 30 min, 1 h, 2 h, 4 h, 6 h, 8 h, 10 h, and 24 h.
The compounds were prepared into solutions using a mixed vehicle composed of 5% dimethyl sulfoxide, 20% (30% solutol), and 75% normal saline. The compound solutions were intravenously injected into male SD rats at a dose of 1.0 mg/kg, and the blood collection time points were: 5 min, 15 min, 30 min, 1 h, 2 h, 4h, 6 h, 8h, 10 h, and 24 h.
Intravenous catheterization was performed on the animals the day before the administration. After the administration, blood samples of about 300 μL were collected from the jugular vein and placed into anticoagulation tubes containing EDTA-K2. The blood samples were centrifuged at 5000 rpm at 4° C. for 10 min to give plasma samples. The plasma samples were prepared within 30 min after blood collection. The plasma samples were stored in a −80° C. freezer before testing.

Data set [3] is described as follows: Stability in rat liver microsomes. Format: in vitro ADME. To be noted: rat liver microsomes 0.5 mg protein/mL, 1 μM test substance, β-NADPH 1 mM, 37° C. On the procedure:
(§1) Experimental Example 2: Evaluation of Stability of Compounds Disclosed Herein in Liver Microsomes
(§2) Composition of experimental incubation system:
(§3) An appropriate amount of the compound was precisely weighed out and dissolved in DMSO to prepare a 10.0 mM stock solution. The 10.0 mM stock solution was diluted with DMSO to 1.0 mM, and then diluted with phosphate buffer (containing 3 mM MgCl2) to prepare a 10 μM test substance working solution for later use (DMSO content in the reaction system: 0.1%).
(§4) An appropriate amount of β-NADPH was precisely weighed out and then prepared into a 5 mM β-NADPH working solution using phosphate buffer (containing 3 mM MgCl2) for later use.
(§5) (1) The liver microsomes (20 mg protein/mL) were taken out from a −80° C. freezer and pre-incubated on a 37° C. water bath thermostatic oscillator for 3 min to thaw for later use.
(§6) (2) A mixed solution of the incubation system (without β-NADPH) was prepared according to “composition of experimental incubation system” described above, and pre-incubated on a 37° C. water bath thermostatic oscillator for 2 min.
(§7) (3) Control group (without β-NADPH): 10 μL of phosphate buffer (containing 3 mM MgCl2) and 40 μL of the mixed solution of the incubation system in step (2) were taken and mixed, and the mixture was vortexed for 30 s and mixed well, resulting in a total reaction volume of 50 μL; the sample was duplicated. The mixture was placed on a 37° C. water bath thermostatic oscillator for incubation, and timing was started, with termination time points set at 0 min and 60 min.
(§8) (4) Sample group: 10 μL of the β-NADPH solution (5 mM) and 40 μL of the mixed solution in step (2) were taken and mixed, resulting in a total reaction volume of 50 μL; the mixture was vortexed for 30 s and mixed well; the sample was duplicated. The mixture was placed on a 37° C. water bath thermostatic oscillator for incubation, and timing was started, with termination time points set at 0 min, 5 min, 10 min, 20 min, 30 min, and 60 min.
(§9) (5) The mixture was vortexed for 5 min and then centrifuged at 4000 rpm for 10 min.
(§10) (6) 50 μL of the supernatant was taken and added to 150 μL of water, and the resulting mixture was vortexed and mixed well before LC/MS/MS analysis.
(§11) The half-life (t1/2) and clearance rate (CL) were calculated using the following first-order kinetic formula
(§12) Notes: k denotes the slope of the logarithm of the remaining amount of a compound vs. time, and Vd denotes apparent volume of distribution.

The nature of data set [4]: Stability in canine liver microsomes. In kind it is in vitro ADME. To be noted: dog, canine liver microsomes 0.5 mg protein/mL, 1 μM test substance, β-NADPH 1 mM, 37° C. The method, then:
as §1, §2, §3, §4, §5, §6, §7, §8, §9, §10, §11, §12

T1 sequence (Q96P20 whole entry): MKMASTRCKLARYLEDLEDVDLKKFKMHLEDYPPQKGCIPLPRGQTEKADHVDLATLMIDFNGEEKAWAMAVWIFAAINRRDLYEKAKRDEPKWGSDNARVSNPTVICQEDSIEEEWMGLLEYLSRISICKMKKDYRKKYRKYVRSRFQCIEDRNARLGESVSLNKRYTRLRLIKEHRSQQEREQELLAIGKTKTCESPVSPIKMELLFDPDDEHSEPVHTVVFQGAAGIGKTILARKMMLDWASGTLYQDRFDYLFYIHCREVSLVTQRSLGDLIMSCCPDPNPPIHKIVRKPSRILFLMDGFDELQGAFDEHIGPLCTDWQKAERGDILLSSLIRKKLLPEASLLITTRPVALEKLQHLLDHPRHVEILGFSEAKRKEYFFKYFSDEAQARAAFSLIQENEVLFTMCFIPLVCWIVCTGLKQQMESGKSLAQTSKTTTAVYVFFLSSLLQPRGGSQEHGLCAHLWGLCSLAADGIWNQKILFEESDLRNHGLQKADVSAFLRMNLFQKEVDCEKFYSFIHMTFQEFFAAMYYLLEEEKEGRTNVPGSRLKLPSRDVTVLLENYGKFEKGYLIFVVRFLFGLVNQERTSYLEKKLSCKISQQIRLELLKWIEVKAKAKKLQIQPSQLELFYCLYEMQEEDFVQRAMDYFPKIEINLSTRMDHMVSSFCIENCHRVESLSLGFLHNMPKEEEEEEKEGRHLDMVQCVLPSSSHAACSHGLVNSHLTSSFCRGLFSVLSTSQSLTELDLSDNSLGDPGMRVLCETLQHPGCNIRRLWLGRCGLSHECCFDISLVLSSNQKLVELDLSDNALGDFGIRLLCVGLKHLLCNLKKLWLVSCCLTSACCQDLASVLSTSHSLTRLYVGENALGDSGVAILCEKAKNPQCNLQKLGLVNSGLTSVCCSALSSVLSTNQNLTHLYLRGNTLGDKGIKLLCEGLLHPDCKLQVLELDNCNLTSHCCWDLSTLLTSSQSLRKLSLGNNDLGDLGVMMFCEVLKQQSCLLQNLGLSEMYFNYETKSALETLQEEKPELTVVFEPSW

Turning to `C#Cc1ccc(-c2nnc(N[C@@H]3CCCN(CCO)C3)c(=O)n2C)c(O)c1` [Compound 42, (R)-3-(4-ethynyl-2-hydroxyphenyl)-6-((1-(2-hydroxyethyl)piperidin-3-yl)amino)-4-methyl-1,2,4-triazin-5(4H)-one], the concentration for half-maximal inhibition (IC50) in data set [1] stood at 4.6 nM. The AUC(0-t) in data set [2] (iv 1 mg/kg, read-out: AUClast iv (0-24 h)) worked out at 2490 ng·h/mL; in data set [2] (po 5 mg/kg, read-out: AUClast po (0-24 h)) it was 9720 ng·h/mL. Besides, the clearance in data set [2] (iv 1 mg/kg, read-out: Cl—obs iv (clearance rate) (converted)) was 6.65 mL/min/kg. The Vd in data set [2] (iv 1 mg/kg, read-out: Vss iv (distribution volume)) was determined as 0.694 L/kg. Also, the half-life is 93 min in data set [2] (iv 1 mg/kg, read-out: tz1/2 iv (terminal half-life) (converted)) and 239 min in data set [2] (po 5 mg/kg, read-out: tz1/2 po (terminal half-life) (converted)). Besides, the bioavailability in data set [2] (po 5 mg/kg vs iv 1 mg/kg, read-out: F% (absolute bioavailability)) worked out at 77.8%. Further, the Tmax in data set [2] (po 5 mg/kg, median, read-out: Tmax po (time to peak plasma concentration)) was 1 h. Also, in data set [2] (po 5 mg/kg, read-out: Cmax po (peak concentration)), the Cmax turned out to be 2490 ng/mL. Besides, the microsomal CLint at 1 μM in data set [3] came out at 4.2 µL/min/mg; in data set [4], 1.2 µL/min/mg. Also, the half-life at 1 μM in data set [3] (read-out: Rat t1/2) came to 330 min; in data set [4] (read-out: Canine t1/2), 1160 min.
